The target in one test is T1, caspase-3 (Homo sapiens, UniProt P42574).
T1 sequence (P42574 29-277): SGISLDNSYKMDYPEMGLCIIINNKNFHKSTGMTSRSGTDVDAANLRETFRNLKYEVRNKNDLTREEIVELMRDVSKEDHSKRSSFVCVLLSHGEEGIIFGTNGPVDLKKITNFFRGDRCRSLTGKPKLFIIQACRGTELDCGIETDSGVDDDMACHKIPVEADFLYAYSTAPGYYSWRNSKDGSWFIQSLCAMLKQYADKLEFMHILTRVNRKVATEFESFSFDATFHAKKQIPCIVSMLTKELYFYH
Description: Caspase-3 activation assay. In kind it is biochemical. Particulars: recombinant caspase-3; MM01 5 µM (Figure 2A). The protocol: Compounds were incubated with caspase-3 (2 nM) in reaction buffer (100 mM NaCl, 50 mM Hepes pH 7.4, 10 mM DTT, 1 mM EDTA, 10% glycerol, 0.1% CHAPS) for 20 min at RT. Enzyme activity was spectrophotometrically monitored by adding Ac-DEVD-pNA (200 µM) substrate.

The next test deals with NLRC4 inflammasome. The experiment in a line: NLRC4 inflammasome activation, Salmonella Typhimurium, THP-1 cells. The format is cell-based, human. To be noted: MM01 10 µM. The protocol: The materials and methods employed in these experiments are now described. The molecules were evaluated in the THP-1, or PMA-differentiated THP-1 cells (50 nM PMA for 24h) as described in Example 3. To stimulate NLRP1 inflammasome, cells were either mock-treated or primed with compounds at the indicated concentrations for 30 min, followed by treatment with 100 ng/mL LPS (Sigma) and 50 µg/ml MDP (Sigma) for 6 h at 37°C. In the case of NLRC4 inflammasome induction, cells were pretreated with the compounds for 30 min and then cells were stimulated for 3 h with Salmonella Typhimurium (MOI 5). To induce AIM2 inflammasome, cells were pretreated in the same conditions as before and transfected with poly(dA:dT) (200 µg/ml; Sigma) overnight using Lipofectamine 2000 (Invitrogen). Both IL-1β secretion and the release of IL-18 were monitored as previously described in Example 3.

Another test relates to NLRP3 inflammasome. The experiment in a line: inflammasome activation cellular assay, LPS plus nigericin, PMA-differentiated THP-1 cells. In kind it is cell-based, human. Particulars: MM01 10 µM. The protocol:
The MM01 compound was evaluated in the THP-1, or PMA-differentiated THP-1 cells (50 nM PMA for 24h) stimulated with lipopolysaccharide (LPS) plus adenosine triphosphate (ATP) to stimulate ASC-dependent inflammasomes NLRP3. Briefly, 1x10^6 cells were seeded in 6-well plates in 1 mL RPMI media that contained 1% FBS. Cells were either mock-treated or primed with compounds at the indicated concentrations for 30 min, followed by treatment with 100 ng/mL LPS (Sigma) and 2.5 mM ATP (Sigma) for 6 h at 37°C. In the case of nigericin stimulation, cells were primed with LPS for 3h, and then 10 µM nigericin (Sigma) was added for 30 min. Supernatants were harvested and clarified by centrifugation at 1500 rpm at RT, and a cytokine analysis was performed. Both IL-1β secretion and the release of IL-18were monitored by an ELISA assay (BD OptEIA™ Human IL-1β ELISA Kit and Human IL-18 Module Set eBioscience) following the manufacturer's instructions. Cell viability was analyzed in parallel by evaluating the release of lactate dehydrogenase (LDH) according to a commercial kit (CytoTox-ONE™ Homogeneous Membrane Integrity Assay; Promega). The release of LDH was calculated using the formula: the release of LDH (%) = 100x (Abs490 treated -Abs490 untreated cells)/ Abs490 untreated cells lysed with Triton 9% (maximum release of LDH).
The supernatants of the treated cells were precipitated by the chloroform-methanol method. Pellets were obtained by lysing cells in 25 mM of Tris-HCI pH 7.4, 1 mM EDTA, 1 mM EGTA and 1% SDS, plus protease and phosphatase inhibitors. The protein concentration was determined by the BCA protein assay. Samples were separated in a 14% SDS-PAGE gel, transferred to a nitrocellulose membrane and blocked with 5% skimmed milk for 1 h. Then the membrane was incubated overnight with primary antibodies: α-casp1 (1:1000; Cell Signaling 2225), α-IL-1β (1:1000; Acris R1130P), α-NLRP3 (1:1000; Cell Signaling 15101), α-tubulin (1:3000; Abcam ab6160) at 4°C. […]

For test [1], the system named is ASC specks in THP1-ASC-GFP cells. Description: ASC speck assay. The format is cell-based, human. Particulars: THP-1 ASC GFP, LPS 100 ng/mL + nigericin 10 µM; MM01 10 µM, VX-765 5 µM. The protocol:
THP1-ASC-GFP cells were seeded at 1×10^6/ml the day prior to use in experiments on 35 mm glass-bottom culture dishes. The following day medium was replaced containing the indicated inhibitors or vehicle for 30 min. Cells were then primed with 100 ng/ml LPS for 3h and stimulated with 10 µM nigericin for 30 min. Samples were fixed in 4% paraformaldehyde (PFA) for 10 min at RT and washed several times. Coverslips were prepared in mounting medium plus DAPI and analyzed in a Leica SP8 confocal microscope.

The mark [2] stands for this setting: PMA-differentiated THP-1, LPS 100 ng/ml + nigericin 10 µM.

As for `C=CCN1C(=O)/C(=C2/C(=O)Nc3ccccc32)SC1=S` [MM01], the caspase-3 activity entry at caspase-3 was “do not act on”. Moreover, the “cytokine maturation and release” value with NLRC4 inflammasome (THP-1, Salmonella infection (MOI 5)) is given as “impaired”. Further, in the test with NLRC4 inflammasome (THP-1, Salmonella infection, LDH), the pyroptosis entry is recorded as “decrease”. Further, in the test on NLRP3 inflammasome (setting [2]), the IL-1β secretion result is recorded as “decreased” and the IL-18 secretion entry is on record as “decreased”. Moreover, the pyroptotic cell death entry in the test with NLRP3 inflammasome (PMA-differentiated THP-1, LPS + nigericin, LDH release) is “decreased”. Further, the ASC speck formation entry in test [1] was “inhibited”.

(Values after patent publication EP3884941A1, “INFLAMMASOME INHIBITORS AND USE THEREOF” (CENTRO DE INVESTIGACION PRINCIPE FELIPE, priority 2020, dated 2021).)
